Entries after “also recorded” stand apart in the source; their conditions may differ.
Assays:
SIRT enzymes = test: Global SIRT activity in liver cells; assay type: cell-based; conditions: AML-12 liver cells
Excerpt: (§1) To that end, the inventors used endothelial cells (EOMA cells) and liver cells (AML-12 cells) in vitro and quantified various markers in response to exposure of the cells to environmental challenge in the presence and absence of DDA at low concentrations. Unless indicated otherwise, the DDA concentration in the in vitro experiments was 5 mcg per microliter. More specifically, the inventors measured p-H2AX protein levels as a marker for DNA damage, PGC-1α protein levels as a marker for mitochondrial biogenesis, NAMPT enzyme levels as a marker for potential for NAD+ production, and total antioxidant capacity as a marker of cellular health. In addition, the inventors also measured global SIRT activity as a gauge of activity for all SIRT enzymes, and in particular SIRT1 enzyme levels as markers for autophagy and various beneficial processes associated with a caloric restricted diet, and SIRT3 levels as markers for mitochondrial function and longevity.
In still further experiments, the liver cells were also tested for global SIRT activity and exemplary results are shown in FIG. 6.

SIRT3 = SIRT3 protein levels in liver cells; assay type: cell-based; conditions: AML-12 liver cells, 24 hours; p=0.028
Excerpt: as §1
(§2) In still further experiments, the inventors also investigated whether or not DDDA could have stimulatory effects on selected SIRT proteins. More specifically, the inventors tested the effects of DDDA on SIRT3 and SIRT1, and exemplary results are shown in FIG. 9 and FIG. 10, respectively. […] N=5-6 plates per treatment. […] Beyond this trend, however, no other observations were evident. N=5-6 plates per treatment.

SIRT1 = SIRT1 levels in liver cells; assay type: cell-based; conditions: AML-12 liver cells, 6 hours; p=0.127
Excerpt: as §1, §2

[1] = tested on: liver cells (AML-12 cells); test: DNA damage (p-H2AX protein levels) in liver cells; assay type: cell-based; conditions: AML-12 liver cells, 6 hours; p=0.068
Excerpt: as §1
Finally, the inventors also investigated whether or not DDDA could have a protective effect against peroxide induced DNA damage, and exemplary results are shown in FIG. 11. […] N=5-6 plates per treatment.

PGC-1α = PGC-1α in endothelial cells; assay type: cell-based; conditions: EOMA endothelial cells
Excerpt: as §1
In yet a further series of experiments, the inventors also sought to confirm whether or not DDDA would have a modulatory effect in endothelial cells using the same markers and experimental conditions as noted above.
On the other hand, where endothelial cells were exposed to DDDA, there was a significant difference in NAMPT enzyme levels as is exemplarily depicted in FIG. 15.

Wistar rats = test: Study 1 (prevention): oral glucose tolerance test and HOMA-IR; assay type: in vivo; conditions: Study 1: 1% (w/vol) in drinking water with high fat-high cholesterol diet for 4 weeks
Protocol: Study design: All animal procedures were approved by the Catholic University of Rome Institutional Animal Care Committee. The design of the studies is summarized in FIG. 18, Panels A and B. • Study 1: Twenty adult Wistar rats, aged 8-10 weeks, were included in the study. The rats were housed in individual cages at 22° C. with 12-h light cycles and had ad libitum access to food and water. Rats were fed a high-fat high-cholesterol diet (44% Carbohydrate, 14% Protein, 42% fat+0.2% Cholesterol) (Mucedola, Milan, IT) for four weeks in the presence or absence of 1% Dodecanedioic acid, sodium salt (w/vol) dissolved in the water (FIG. 18, Panel A). Body weight and food/water intake were monitored weekly. • Study 2: Twenty adult Wistar rats, aged 8-10 weeks, were included in the study. The rats were housed in individual cages at 22° C. with 12-h light cycles and had ad libitum access to food and water. Rats were fed a high-fat high-cholesterol diet (44% Carbohydrate, 14% Protein, 42% fat+0.2% Cholesterol) (Mucedola, Milan, IT). After nine weeks of diet, rats were randomly assigned to one of the following groups: Four weeks of high-fat high-cholesterol diet or four weeks of high-fat high-cholesterol diet and 1% Dodecanedioic acid, sodium salt (w/v) dissolved in the water FIG. 18, Panel B). Body weight and food/water intake were monitored weekly.
Oral Glucose Test Tolerance (OGTT): All animals underwent an OGTT at the end of the study. After an overnight fasting, the rats received a 50% D-glucose solution (1 g/kg body weight) by oral gavage. Blood samples were taken by tail bleeding and collected in EDTA tubes. All blood samples were immediately centrifuged, and plasma divided into appropriate subsamples and stored at −20° C. for further analysis. Blood glucose and was measured at 0, 20, 40, 60, 80, 100 and 120 minutes, while plasma insulin at 0, 60 and 120 minutes. Blood glucose levels were measured by glucometer (Accu-Chek, Roche Diagnostics Division, Grenzacherstrasse, CH). Plasma insulin was measured by ELISA (EMD Millipore Corporation, Billerica, MA), with a sensitivity of 0.1 ng/ml and an intra-and inter-assay precision of 1.9% and 7.6%, respectively.
DODA administration prevents the onset of insulin resistance and NASH: To test the hypothesis that DODA could prevent the development of diet-induced insulin resistance and NASH, the inventors administered 1% (w/vol) of DODA in the drinking water together with a high fat-high cholesterol diet for 4 weeks. Rats fed high fat-high cholesterol diet without the administration of DODA were included as controls.
Panels A and B. • Study 1: Twenty adult Wistar rats, aged 8-10 weeks, were included in the study. The rats were housed in individual cages at 22° C. with 12-h light cycles and had ad libitum access to food and water. Rats were fed a high fat high cholesterol diet (44% Carbohydrate, 14% Protein, 42% fat+0.2% Cholesterol) for 4 weeks in the presence or absence of 1% Dodecanedioic acid, sodium salt dissolved in the water (FIG. 25, Panel A). Body weight and food/water intake were monitored weekly. • Study 2: Twenty adult Wistar rats, aged 8-10 weeks, were included in the study. The rats were housed in individual cages at 22° C. with 12-h light cycles and had ad libitum access to food and water. Rats were fed a high fat-high cholesterol diet (44% Carbohydrate, 14% Protein, 42% fat+0.2% Cholesterol). […] Body weight and food/water intake were monitored weekly. […]

O=C(O)CCCCCCCCCCC(=O)O [DDDA, dodecanedioic acid]
global SIRT activity (SIRT enzymes; 6 hours, in the presence of hydrogen peroxide, p<0.001): increased global SIRT activity in a statistically significant manner | global SIRT activity (SIRT enzymes; 24 hours, no hydrogen peroxide, same trend, p=0.065): did not reach a level of significance | SIRT3 protein levels (SIRT3): significantly increased | SIRT1 levels (SIRT1): trended upwards | peroxide induced DNA damage [1]: trend towards decreased DNA damage | PGC-1α (PGC-1α): did not show a statistically significant difference | blood glucose concentrations during an oral glucose tolerance test (Wistar rats; vs controls): decrease | hepatic insulin resistance assessed by HOMA-IR (Wistar rats; vs controls): decreased | plasma insulin concentrations during an oral glucose tolerance test (Wistar rats; vs controls): decrease | diet-induced insulin resistance and NASH (overall, prevention) (Wistar rats; listed as C12): able to prevent diet-induced insulin resistance and NASH; also recorded: prevents diet-induced insulin resistance and NASH | diet-induced insulin resistance and NASH (overall, prevention) (Wistar rats; listed as DODA): able to prevent diet-induced insulin resistance and NASH; also recorded: prevents diet-induced insulin resistance and NASH

Source: patent US20260053767A1, “Hepatoprotective Compositions And Methods” (Jemyll, Ltd., priority 2022, published 2026)
